Data: PubChem BioAssay AID248 (DTP/NCI, 2004)
Values joined by “and” are separate entries in the source; they are usually repeats but may differ in a detail not shown here. Equal entries are not always repeated. Toxic doses and inconclusive results are not listed. Cut-off read from the data, not from the text of the source: active = T/C of 150% or more; inactive = T/C below 125%.

System: L1210 leukemia ip in BDF1 mice, survival T/C
Assay: NCI In Vivo Anticancer Drug Screen. Data for tumor model L1210 Leukemia (intraperitoneal) in B6D2F1 (BDF1) mice
Details: endpoint: mean survival time, higher = longer survival
Summary of the method: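 In this screen, tumor-bearing mice given compound are compared to those given vehicle, and their survival values are reported as a treated-to-control quotient.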

[1] = dose: 200.0 mg/kg/injection, schedule: Q01DX009 (ip), vehicle: gum acacia
[2] = dose: 200.0 mg/kg/injection, schedule: Q04DX003 (ip), vehicle: gum acacia
[3] = dose: 400.0 mg/kg/injection, schedule: Q04DX003 (ip), vehicle: gum acacia
[4] = dose: 50.0 mg/kg/injection, schedule: Q04DX002 (ip), vehicle: saline with Tween-80
[5] = dose: 50.0 mg/kg/injection, schedule: Q01DX009 (ip), vehicle: saline with Tween-80
[6] = dose: 100.0 mg/kg/injection, schedule: Q01DX009 (ip), vehicle: saline with Tween-80
[7] = dose: 200.0 mg/kg/injection, schedule: Q01DX009 (ip), vehicle: saline with Tween-80
[8] = dose: 25.0 mg/kg/injection, schedule: Q01DX009 (ip), vehicle: saline
[9] = dose: 50.0 mg/kg/injection, schedule: Q01DX009 (ip), vehicle: saline
[10] = dose: 100.0 mg/kg/injection, schedule: Q01DX001 (ip), vehicle: Klucel (hydroxypropylcellulose) (HPC)
[11] = dose: 200.0 mg/kg/injection, schedule: Q01DX001 (ip), vehicle: Klucel (hydroxypropylcellulose) (HPC)
[12] = dose: 100.0 mg/kg/injection, schedule: Q01DX009 (ip), vehicle: Klucel (hydroxypropylcellulose) (HPC)
[13] = dose: 200.0 mg/kg/injection, schedule: Q01DX009 (ip), vehicle: Klucel (hydroxypropylcellulose) (HPC)
[14] = dose: 400.0 mg/kg/injection, schedule: Q01DX009 (ip), vehicle: Klucel (hydroxypropylcellulose) (HPC)
[15] = dose: 100.0 mg/kg/injection, schedule: Q04DX003 (ip), vehicle: Klucel (hydroxypropylcellulose) (HPC)
[16] = dose: 200.0 mg/kg/injection, schedule: Q04DX003 (ip), vehicle: Klucel (hydroxypropylcellulose) (HPC)
[17] = dose: 400.0 mg/kg/injection, schedule: Q04DX003 (ip), vehicle: Klucel (hydroxypropylcellulose) (HPC)
[18] = dose: 75.0 mg/kg/injection, schedule: Q01DX001 (ip), vehicle: saline
[19] = dose: 150.0 mg/kg/injection, schedule: Q01DX001 (ip), vehicle: saline

Measured: T/C

CCOc1ccc(NC(=O)Nc2ccccc2Cl)cc1
inactive: dose: 6.0 mg/kg/injection, schedule: Q01DX009 (ip), vehicle: Klucel (hydroxypropylcellulose) (HPC) 93 % of control | dose: 12.0 mg/kg/injection, schedule: Q01DX009 (ip), vehicle: Klucel (hydroxypropylcellulose) (HPC) 88 % of control | dose: 25.0 mg/kg/injection, schedule: Q01DX009 (ip), vehicle: Klucel (hydroxypropylcellulose) (HPC) 97 % of control | dose: 25.0 mg/kg/injection, schedule: Q01DX009 (ip), vehicle: gum acacia 89 % of control | [1] 91 % of control | [2] 92 % of control | [3] 90 % of control

COc1cc(N(CCCl)CCCl)ccc1NC(=O)c1ccccc1
inactive: dose: 100.0 mg/kg/injection, schedule: Q01DX001 (ip), vehicle: other 98 % of control | dose: 200.0 mg/kg/injection, schedule: Q01DX001 (ip), vehicle: other 98 % of control | dose: 400.0 mg/kg/injection, schedule: Q01DX001 (ip), vehicle: other 109 % of control

OCC12C=CC(CC1)CC2
inactive: dose: 75.0 mg/kg/injection, schedule: Q04DX002 (ip), vehicle: gum acacia 92 % of control | dose: 150.0 mg/kg/injection, schedule: Q04DX002 (ip), vehicle: gum acacia 100 % of control | dose: 300.0 mg/kg/injection, schedule: Q04DX002 (ip), vehicle: gum acacia 92 % of control

CN1C(=O)CC(C(=O)c2ccc(N3C(=O)C=CC3=O)cc2)(c2ccccc2)C1=O (configuration not stated)
inactive: dose: 25.0 mg/kg/injection, schedule: Q04DX002 (ip), vehicle: saline with Tween-80 102 % of control | [4] 98 % of control

C=C(C)C1CCC(C)CC1O (configuration not stated)
inactive: [5] 111 % of control | [6] 97 % of control | [7] 108 % of control

CC(=O)OC1C=C2CCCCC2(C)CC1 (configuration not stated)
inactive: [4] 96 % of control | dose: 100.0 mg/kg/injection, schedule: Q04DX002 (ip), vehicle: saline with Tween-80 96 % of control | dose: 200.0 mg/kg/injection, schedule: Q04DX002 (ip), vehicle: saline with Tween-80 111 % of control

Cc1cc2nc3ccc(=[N+](C)C)cc-3sc2cc1N
inactive: dose: 3.12 mg/kg/injection, schedule: Q01DX009 (ip), vehicle: saline 94 % of control | dose: 6.25 mg/kg/injection, schedule: Q01DX009 (ip), vehicle: saline 100 % of control | dose: 12.5 mg/kg/injection, schedule: Q01DX009 (ip), vehicle: saline 117 % of control | [8] 101 % of control | dose: 25.0 mg/kg/injection, schedule: Q04DX003 (ip), vehicle: saline 98 % of control | [9] 100 % of control | dose: 50.0 mg/kg/injection, schedule: Q04DX003 (ip), vehicle: saline 106 % of control

CCC(C(=O)c1cccs1)C(O)(C(F)(F)F)C(F)(F)F (configuration not stated)
inactive: [10] 102 % of control | [11] 97 % of control | dose: 400.0 mg/kg/injection, schedule: Q01DX001 (ip), vehicle: Klucel (hydroxypropylcellulose) (HPC) 94 % of control

O=C(CCCc1ccc(N(CCCl)CCCl)cc1)Nc1ncccn1
inactive: dose: 1.0 mg/kg/injection, schedule: Q01DX015 (ip), vehicle: carboxymethylcellulose (CMC) 113 % of control | dose: 3.0 mg/kg/injection, schedule: Q01DX015 (ip), vehicle: carboxymethylcellulose (CMC) 118 % of control | dose: 6.0 mg/kg/injection, schedule: Q01DX015 (ip), vehicle: carboxymethylcellulose (CMC) 118 % of control | dose: 6.25 mg/kg/injection, schedule: Q01DX001 (ip), vehicle: saline 110 % of control | dose: 12.0 mg/kg/injection, schedule: Q01DX015 (ip), vehicle: carboxymethylcellulose (CMC) 123 % of control | dose: 12.5 mg/kg/injection, schedule: Q01DX001 (ip), vehicle: saline 110 % of control | dose: 25.0 mg/kg/injection, schedule: Q01DX001 (ip), vehicle: saline 121 % of control

Cc1cc2nc3[nH]c(=O)c4c(n3c2cc1C)CCC4
inactive: dose: 50.0 mg/kg/injection, schedule: Q04DX002 (ip), vehicle: saline 87 % of control | dose: 100.0 mg/kg/injection, schedule: Q04DX002 (ip), vehicle: saline 108 % of control | dose: 200.0 mg/kg/injection, schedule: Q04DX002 (ip), vehicle: saline 112 % of control

CC1(C)C[N+](C)(Cc2ccccc2)C1
inactive: dose: 100.0 mg/kg/injection, schedule: Q04DX003 (ip), vehicle: saline with Tween-80 101 % of control

O=C(Nc1cccc(C(F)(F)F)c1)N(Cc1ccccc1)c1ccccc1
inactive: [12] 109 % of control | [13] 95 % of control | [14] 96 % of control

CC(=O)OC1CCC2(C)C(CCC3C2CCC2(C)C(C(C)O)CCCC32)C1 (configuration not stated)
inactive: [10] 88 % of control | [11] 98 % of control

CC1(C)OCC(C(NC(=O)c2ccccc2)C(OC(=O)c2ccccc2)C2COC(C)(C)O2)O1 (configuration not stated)
inactive: dose: 100.0 mg/kg/injection, schedule: Q04DX002 (ip), vehicle: Klucel (hydroxypropylcellulose) (HPC) 90 % of control | dose: 200.0 mg/kg/injection, schedule: Q04DX002 (ip), vehicle: Klucel (hydroxypropylcellulose) (HPC) 90 % of control | dose: 400.0 mg/kg/injection, schedule: Q04DX002 (ip), vehicle: Klucel (hydroxypropylcellulose) (HPC) 90 % of control

Clc1ccc(/C=C/c2cccc(/C=C/c3ccc(Cl)cc3)n2)cc1
inactive: [15] 96 % of control | [16] 97 % of control | [17] 97 % of control

CN1CCCC1=O
inactive: [5] 91 % of control | [6] 88 % of control | [7] 102 % of control

CCN(CC)CCSC(=O)C(O)(c1ccccc1)C1CCCC1 (configuration not stated)
inactive: [8] 103 % of control | [9] 97 % of control and 108 % of control | [18] 96 % of control | dose: 100.0 mg/kg/injection, schedule: Q01DX009 (ip), vehicle: saline 100 % of control and 88 % of control | dose: 100.0 mg/kg/injection, schedule: Q04DX003 (ip), vehicle: saline 102 % of control | [19] 92 % of control | dose: 200.0 mg/kg/injection, schedule: Q04DX003 (ip), vehicle: saline 100 % of control

CCCCCCCC(=O)c1ccc(NC(C)=O)cc1
inactive: [12] 103 % of control | [15] 99 % of control | [13] 95 % of control | [16] 92 % of control | [14] 102 % of control | [17] 100 % of control

O=S(=O)(Nc1ccccc1Cl)c1ccccc1
inactive: dose: 100.0 mg/kg/injection, schedule: Q01DX009 (ip), vehicle: gum acacia 100 % of control | dose: 100.0 mg/kg/injection, schedule: Q04DX003 (ip), vehicle: gum acacia 93 % of control | [1] 98 % of control | [2] 95 % of control | dose: 400.0 mg/kg/injection, schedule: Q01DX009 (ip), vehicle: gum acacia 94 % of control | [3] 95 % of control

Nn1c(-c2ccccc2)c[n+]2ccccc12
inactive: dose: 75.0 mg/kg/injection, schedule: Q01DX001 (ip), vehicle: other 101 % of control | dose: 150.0 mg/kg/injection, schedule: Q01DX001 (ip), vehicle: other 97 % of control | dose: 300.0 mg/kg/injection, schedule: Q01DX001 (ip), vehicle: other 92 % of control

Nc1ccccc1S(=O)(=O)Nc1ccccc1
inactive: [12] 98 % of control | [15] 92 % of control | [13] 95 % of control | [16] 97 % of control | [14] 87 % of control | [17] 100 % of control

c1ccc2c(c1)cnn1cnnc21
inactive: dose: 75.0 mg/kg/injection, schedule: Q01DX001 (ip), vehicle: carboxymethylcellulose (CMC) 115 % of control | dose: 150.0 mg/kg/injection, schedule: Q01DX001 (ip), vehicle: carboxymethylcellulose (CMC) 97 % of control

N#Cc1ccc[n+](Cc2ccc3c(c2)OCO3)c1
inactive: [18] 106 % of control | [19] 106 % of control

c1cc(Nc2ccncc2)ccn1
inactive: dose: 6.25 mg/kg/injection, schedule: Q01DX009 (ip), vehicle: saline with Tween-80 97 % of control | dose: 12.5 mg/kg/injection, schedule: Q01DX009 (ip), vehicle: saline with Tween-80 95 % of control | dose: 25.0 mg/kg/injection, schedule: Q01DX009 (ip), vehicle: saline with Tween-80 99 % of control | dose: 25.0 mg/kg/injection, schedule: Q04DX003 (ip), vehicle: saline with Tween-80 97 % of control
